Experimental data: ChEMBL document CHEMBL1137392, “Conformational analysis of an alpha3beta1 integrin-binding peptide from thrombospondin-1: implications for antiangiogenic drug design” (J Med Chem, 2006)
Where a SMILES comes first, the peptide text is derived from it. Bridges are numbered along the chain shown (N, C = ends).

Each compound was assayed on MDA-MB-435 (assay: Inhibition of alpha3beta1 integrin-dependent adhesion of MDA-MB-435 cells). Conditions: Homo sapiens.
Assay type: functional, cell-based
With H-FQGVLQNARFVF-OH the IC50 was greater than 300 µM.
H-FQGVLQDVRFVF-OH was tested, and the IC50 was 13 µM.
H-FQGVLQNVAFVF-OH showed an IC50 greater than 300 µM.
H-FQGVLQNLRFVF-OH gave an IC50 of 17 µM.
H-FQGVLQQVRFVF-OH gave an IC50 of 27 µM.
H-FQGVLQAVRFVF-OH was tested, and the IC50 was 300 µM.
Compound `NC(=O)C[C@@H]1NC(=O)[C@@H](N)CSSC[C@@H](C(=O)O)NC(=O)[C@H](CCCN=C(N)N)NC(=O)CNC1=O` (H-CNGRC-OH; disulfide 1-5) has an IC50 greater than 300 µM.
Work on `CC(=O)N[C@H](Cc1ccccc1)C(=O)N[C@@H](C(=O)N[C@H](Cc1ccccc1)C(=O)N[C@H](CCCN=C(N)N)C(=O)N[C@@H](C(=O)N[C@H](CC(N)=O)C(=O)N[C@H](CCC(N)=O)C(=O)N[C@H](CC(C)C)C(=O)N[C@@H](C(=O)NCC(=O)N[C@H](CCC(N)=O)C(=O)N[C@H](Cc1ccccc1)C(N)=O)C(C)C)C(C)C)C(C)C` yielded an IC50 of 16 µM.
`CC(C)[C@@H]1NC(=O)[C@H](CC(N)=O)NC(=O)[C@@H](N)CSSC[C@@H](C(=O)O)NC(=O)[C@H](CCCN=C(N)N)NC1=O` (H-CNVRC-OH; disulfide 1-5) was tested, and the IC50 was greater than 300 µM.
